Calls of active or inactive are those of the source. The rule behind the calls is not given here.

Series [1] has as its target T1, Tyrosine-protein phosphatase non-receptor type 1 (Homo sapiens, UniProt P18031).
T1 sequence (P18031 whole entry): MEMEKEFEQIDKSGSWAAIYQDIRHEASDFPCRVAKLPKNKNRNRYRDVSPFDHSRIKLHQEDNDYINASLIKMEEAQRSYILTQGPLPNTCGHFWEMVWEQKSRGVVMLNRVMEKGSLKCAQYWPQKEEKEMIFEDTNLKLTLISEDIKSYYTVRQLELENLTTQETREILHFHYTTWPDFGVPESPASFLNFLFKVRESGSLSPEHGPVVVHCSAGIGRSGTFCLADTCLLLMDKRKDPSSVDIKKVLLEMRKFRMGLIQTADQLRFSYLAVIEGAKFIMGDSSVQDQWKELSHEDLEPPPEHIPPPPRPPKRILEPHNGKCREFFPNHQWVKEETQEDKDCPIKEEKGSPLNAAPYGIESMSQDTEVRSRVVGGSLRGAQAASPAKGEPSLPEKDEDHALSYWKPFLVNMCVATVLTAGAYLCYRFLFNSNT
The series can be described thus: Inhibition of recombinant human PTP1B using pNPP as substrate after 30 mins.

Series [2] deals with T2, Tyrosine-protein phosphatase non-receptor type 1 (Mus musculus) (UniProt P35821).
T2 sequence (whole entry): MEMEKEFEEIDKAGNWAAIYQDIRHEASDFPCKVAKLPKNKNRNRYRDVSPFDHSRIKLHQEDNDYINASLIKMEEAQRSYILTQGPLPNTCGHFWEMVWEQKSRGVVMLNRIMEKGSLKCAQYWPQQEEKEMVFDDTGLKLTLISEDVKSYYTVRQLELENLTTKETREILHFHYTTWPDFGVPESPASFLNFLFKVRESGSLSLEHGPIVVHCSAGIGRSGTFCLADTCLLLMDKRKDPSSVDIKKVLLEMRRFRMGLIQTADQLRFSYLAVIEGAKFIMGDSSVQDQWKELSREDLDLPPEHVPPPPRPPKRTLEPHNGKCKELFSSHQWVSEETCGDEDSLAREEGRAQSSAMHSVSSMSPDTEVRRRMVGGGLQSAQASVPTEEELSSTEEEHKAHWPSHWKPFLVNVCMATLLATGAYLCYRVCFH
The series can be described thus: Inhibition of PTP1B in differentiated mouse 3T3L1 cells assessed as increase in glucose uptake at 20 uM after 1 hr by […] staining based fluorescence microscopic assay.

The target of series [3] is T2, Tyrosine-protein phosphatase non-receptor type 1 (Mus musculus). The series can be described thus: Inhibition of PTP1B in differentiated mouse 3T3L1 cells assessed as increase in glucose uptake at 5 to 20 uM after 1 hr by 2-NBDG staining based fluorescence assay.
Series [4] shares this target. The series can be described thus: Inhibition of PTP1B in differentiated mouse C2C12 cells assessed as upregulation of AMPKalpha phosphorylation at Thr-172 residue at 20 uM after 3 hrs by Western blot assay. (In general: Immunoblotting shows a protein as a band on a membrane.)
Another series deals with C2C12. The series can be described thus: Cytotoxicity against mouse C2C12 cells assessed as reduction in cell viability at 20 uM after 24 hrs by MTT assay. The class given is cell-based. To be noted: c2c12, 24 h. For orientation: Tetrazolium assays rely on reduction of a dye to a coloured formazan, in cell work by metabolically active cells.
The target of series [5] is T2, Tyrosine-protein phosphatase non-receptor type 1 (Mus musculus). The series can be described thus: Inhibition of PTP1B in differentiated mouse C2C12 cells assessed as upregulation of ACC phosphorylation at Ser-79 residue at 20 uM after 30 mins by Western blot assay.
For series [6], the target named is Mitogen-activated protein kinase 1 and 3 (ERK2 and ERK1) (Mus musculus) (UniProt P63085+Q63844). The series can be described thus: Upregulation of ERK1/2 phosphorylation at p44 residue in differentiated mouse C2C12 cells at 10 to 20 uM preincubated for 2 hrs followed by insulin addition measured after 15 mins by Western blot assay.
In series [7] the target is T2, Tyrosine-protein phosphatase non-receptor type 1 (Mus musculus). The series can be described thus: Inhibition of PTP1B in differentiated mouse C2C12 cells assessed as upregulation of ACC phosphorylation at Ser-79 residue at 0.2 mM after 30 mins by Western blot assay.

Chain of Mitogen-activated protein kinase 1 and 3 (ERK2 and ERK1) (Mus musculus) (P63085 whole entry, looked up): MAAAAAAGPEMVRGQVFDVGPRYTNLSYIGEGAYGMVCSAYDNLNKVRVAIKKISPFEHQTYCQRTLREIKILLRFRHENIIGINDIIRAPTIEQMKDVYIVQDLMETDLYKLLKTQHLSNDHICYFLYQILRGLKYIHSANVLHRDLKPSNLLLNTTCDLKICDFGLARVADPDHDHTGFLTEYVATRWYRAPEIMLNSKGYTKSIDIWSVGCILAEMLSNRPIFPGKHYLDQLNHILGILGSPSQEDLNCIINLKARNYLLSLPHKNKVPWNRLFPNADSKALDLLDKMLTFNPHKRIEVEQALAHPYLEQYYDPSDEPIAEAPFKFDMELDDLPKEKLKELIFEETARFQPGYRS
Chain of Mitogen-activated protein kinase 1 and 3 (ERK2 and ERK1) (Mus musculus) (Q63844 whole entry, looked up): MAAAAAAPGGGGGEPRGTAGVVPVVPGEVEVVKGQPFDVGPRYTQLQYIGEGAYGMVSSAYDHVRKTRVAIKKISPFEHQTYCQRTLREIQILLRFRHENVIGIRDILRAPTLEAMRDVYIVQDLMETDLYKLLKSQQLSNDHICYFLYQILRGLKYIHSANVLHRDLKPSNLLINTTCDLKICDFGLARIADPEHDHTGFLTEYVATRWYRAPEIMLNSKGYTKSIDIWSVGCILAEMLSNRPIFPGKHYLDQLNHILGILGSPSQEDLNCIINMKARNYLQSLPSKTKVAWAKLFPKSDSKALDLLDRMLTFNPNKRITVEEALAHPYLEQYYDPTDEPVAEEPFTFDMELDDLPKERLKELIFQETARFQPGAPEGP

The term IC50 denotes the midpoint of a concentration-inhibition curve. With `C=C1CC/C=C(\COC(C)=O)CC[C@@H](C(C)C)[C@@H](O)[C@@H]1O`, the IC50 in series [1] came to 7.3 µM. Also, the inhibition result in series [2], in series [3] and in series [5] was “Active” each time. Moreover, the inhibition result in series [4] was “inactive”. For the same molecule, the Activity entry in the series on C2C12 is given as “Non-Toxic”. Besides, in series [6], the result was Active.
Turning to `C=C(C)C1=CC[C@@]2(C)[C@H]1[C@H]1CC[C@@H]3[C@@]4(C)CC[C@H](OC(=O)CCCCCCCCCCCCCCC)C(C)(C)[C@@H]4CC[C@@]3(C)[C@]1(C)C[C@@H]2O`, the IC50 in series [1] stood at 23.6 µM. The inhibition entry in series [2] and in series [3] was “Active” throughout. The Activity result with C2C12 was “Non-Toxic”.
Regarding `NC(=O)c1ncn([C@@H]2O[C@H](CO)[C@@H](O)[C@H]2O)c1N`, the inhibition result in series [7] is “Active”.
Consider `CC1(C)C[C@@H]2C[C@](C)(O)C(=O)C=C1O2`, for which, in series [1], the IC50 worked out at 27 µM.
Consider `CC1(C)[C@@H]2CC(=O)[C@@]1(C)C[C@@H]2O`, for which, in series [1], the IC50 was found to be 17.6 µM.

The values above are taken from ChEMBL document CHEMBL4043257, “PTP1B inhibitors from the seeds of Iris sanguinea and their insulin mimetic activities via AMPK and ACC phosphorylation” (Bioorg Med Chem Lett, 2017).
